From PubChem BioAssay (NCI)
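Grown in 96-well plates, cells were treated for 48 hours with each compound at five concentrations. Insufficient inhibition: endpoint recorded as highest concentration tested. At the TGI there is no net growth.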

Tests used:
Assay in all cases: DTP human tumour cell line panel, 48 h
[1] = system: KM12 colon
[2] = system: MDA-MB-231 breast
[3] = system: ACHN renal
[4] = system: MDA-N
[5] = system: LOX IMVI melanoma
[6] = system: TK-10 renal
[7] = system: SK-OV-3 ovarian
[8] = system: OVCAR-3 ovarian
[9] = system: HCC-2998 colon
[10] = system: IGROV1 ovarian
[11] = system: T-47D breast
[12] = system: OVCAR-5 ovarian
[13] = system: SK-MEL-28 melanoma
[14] = system: DU-145 prostate
[15] = system: NCI-H522 lung
[16] = system: EKVX NSCLC
[17] = system: RPMI-8226 leukemia
[18] = system: SNB-19 CNS
[19] = system: NCI-H23 lung
[20] = system: RXF 393 renal

O=S1(=O)Cc2ccc3c4c2-c2c(ccc5ccc(c-4c25)CS(=O)(=O)C3)C1
TGI [1]: > 100 µM
TGI [2]: > 100 µM
TGI [3]: > 100 µM
TGI [4]: > 100 µM
TGI [5]: > 100 µM
TGI [6]: > 100 µM
TGI [7]: > 100 µM
TGI [8]: > 100 µM
TGI [9]: > 100 µM
TGI [10]: > 100 µM
TGI [11]: > 100 µM
TGI [12]: > 100 µM
TGI [13]: > 100 µM
TGI [14]: > 100 µM
TGI [15]: > 100 µM
TGI [16]: > 100 µM
TGI [17]: > 100 µM
TGI [18]: > 100 µM

Cn1c(=O)oc2cc(C(O)CN3CCN(Cc4ccccn4)CC3)c(Cl)cc21 (stereo unspecified)
TGI [1]: > 100 µM
TGI [2]: > 100 µM
TGI [3]: > 100 µM
TGI [4]: > 100 µM
TGI [5]: > 100 µM
TGI [19]: > 100 µM
TGI [6]: > 100 µM
TGI [7]: > 100 µM
TGI [8]: > 100 µM
TGI [9]: > 100 µM
TGI [10]: > 100 µM
TGI [11]: > 100 µM
TGI [12]: > 100 µM
TGI [13]: > 100 µM
TGI [14]: > 100 µM
TGI [15]: > 100 µM
TGI [16]: > 100 µM
TGI [20]: > 100 µM
TGI [18]: > 100 µM

[N-]=[N+]=NC1C(O)C(CO)OC1n1ccc(=O)[nH]c1=O (stereo unspecified)
TGI [1]: > 875 µM
TGI [2]: > 875 µM
TGI [3]: > 875 µM
TGI [4]: > 875 µM
TGI [5]: > 875 µM
TGI [19]: > 875 µM
TGI [6]: > 875 µM
TGI [7]: > 875 µM
TGI [8]: > 875 µM
TGI [9]: > 875 µM
TGI [10]: > 875 µM
TGI [11]: > 875 µM
TGI [12]: > 875 µM
TGI [13]: > 875 µM
TGI [14]: > 875 µM
TGI [15]: > 875 µM
TGI [16]: > 875 µM
TGI [17]: > 875 µM
TGI [18]: > 875 µM

Nc1nc(Cl)c(N)c(NCC2(CO)CCCC2)n1
TGI [1]: > 100 µM
TGI [2]: > 100 µM
TGI [3]: > 100 µM
TGI [4]: > 100 µM
TGI [5]: > 100 µM
TGI [6]: > 100 µM
TGI [7]: 24.2 µM
TGI [8]: > 100 µM
TGI [9]: > 100 µM
TGI [10]: > 100 µM
TGI [11]: 35.9 µM
TGI [12]: > 100 µM
TGI [13]: > 100 µM
TGI [14]: > 100 µM
TGI [15]: > 100 µM
TGI [16]: > 100 µM
TGI [20]: > 100 µM
TGI [17]: > 100 µM
TGI [18]: > 100 µM

Cc1cc(C2CC(O)C(CO)O2)c(F)cc1F (stereo unspecified)
TGI [1]: > 100 µM
TGI [2]: > 100 µM
TGI [3]: > 100 µM
TGI [4]: > 100 µM
TGI [5]: > 100 µM
TGI [19]: > 100 µM
TGI [6]: > 100 µM
TGI [7]: > 100 µM
TGI [8]: > 100 µM
TGI [9]: > 100 µM
TGI [10]: > 100 µM
TGI [11]: > 100 µM
TGI [12]: > 100 µM
TGI [13]: > 100 µM
TGI [14]: > 100 µM
TGI [15]: > 100 µM
TGI [16]: > 100 µM
TGI [20]: > 100 µM
TGI [18]: > 100 µM

O=C(N[C@@H](c1ccccc1)[C@@H](O)C(=O)OCc1ccc([N+](=O)[O-])cc1)c1ccccc1
TGI [1]: > 100 µM
TGI [2]: > 100 µM
TGI [3]: > 100 µM
TGI [4]: > 100 µM
TGI [5]: > 100 µM
TGI [19]: > 100 µM
TGI [6]: > 100 µM
TGI [7]: > 100 µM
TGI [8]: > 100 µM
TGI [9]: > 100 µM
TGI [10]: > 100 µM
TGI [11]: > 100 µM
TGI [12]: > 100 µM
TGI [14]: > 100 µM
TGI [15]: > 100 µM
TGI [16]: > 100 µM
TGI [20]: > 100 µM
TGI [18]: > 100 µM

CN(C)c1ccc(/C=N\NC(=O)Nc2cccc3ccccc23)cc1
TGI [1]: > 100 µM
TGI [2]: 32.9 µM
TGI [3]: 38.5 µM
TGI [4]: 12 µM
TGI [5]: 22.1 µM
TGI [19]: 76 µM
TGI [6]: 36.7 µM
TGI [9]: > 100 µM
TGI [10]: 36.6 µM
TGI [11]: 19.8 µM
TGI [12]: > 100 µM
TGI [13]: > 100 µM
TGI [14]: 30.9 µM
TGI [15]: 14 µM
TGI [16]: > 100 µM
TGI [20]: > 100 µM
TGI [17]: > 100 µM
TGI [18]: 7.5 µM

C=C(C(=O)O)[C@@H]1C[C@@H](OC(C)=O)[C@]2(C)CC/C=C(\C)CCC[C@H](C)[C@H](O)[C@@H]1O2
TGI [1]: > 100 µM
TGI [2]: > 100 µM
TGI [3]: > 100 µM
TGI [4]: 64.2 µM
TGI [5]: > 100 µM
TGI [6]: > 100 µM
TGI [7]: > 100 µM
TGI [8]: > 100 µM
TGI [9]: > 100 µM
TGI [10]: > 100 µM
TGI [11]: > 100 µM
TGI [12]: > 100 µM
TGI [13]: > 100 µM
TGI [14]: > 100 µM
TGI [15]: 48.4 µM
TGI [16]: > 100 µM
TGI [20]: 65.9 µM
TGI [17]: > 100 µM

CCCCCCOc1ccc(Nc2c(O)c3c(c(O)c2Cl)C(=O)C=CC3=O)cc1
TGI [1]: > 7.66 µM
TGI [2]: > 6.11 µM
TGI [3]: > 10 µM
TGI [4]: > 6.89 µM
TGI [5]: 3.61 µM
TGI [19]: 4.95 µM
TGI [6]: > 10 µM
TGI [7]: > 10 µM
TGI [8]: 4.77 µM
TGI [9]: 3.86 µM
TGI [11]: > 10 µM
TGI [12]: > 10 µM
TGI [13]: 3.82 µM
TGI [14]: > 10 µM
TGI [15]: 3.98 µM
TGI [16]: > 10 µM
TGI [20]: 4.41 µM
TGI [17]: 5.11 µM
TGI [18]: > 9.63 µM

O=C1c2cccc3cccc(c23)C2NCCCN12 (stereo unspecified)
TGI [1]: > 100 µM
TGI [2]: > 100 µM
TGI [3]: > 100 µM
TGI [4]: > 100 µM
TGI [5]: > 100 µM
TGI [19]: > 100 µM
TGI [6]: > 100 µM
TGI [7]: > 100 µM
TGI [8]: > 100 µM
TGI [9]: > 100 µM
TGI [10]: > 100 µM
TGI [11]: > 100 µM
TGI [12]: > 100 µM
TGI [13]: > 100 µM
TGI [14]: > 100 µM
TGI [15]: 80.4 µM
TGI [16]: > 100 µM
TGI [20]: > 100 µM
TGI [18]: > 100 µM

Cc1cc2c(cc1C)C(=O)C1(C2)Cc2c(C)ccc(C)c2C1=O (stereo unspecified)
TGI [1]: > 100 µM
TGI [2]: > 100 µM
TGI [3]: > 100 µM
TGI [4]: > 100 µM
TGI [5]: > 100 µM
TGI [6]: > 100 µM
TGI [8]: > 100 µM
TGI [9]: > 100 µM
TGI [10]: > 100 µM
TGI [11]: > 100 µM
TGI [12]: > 100 µM
TGI [13]: > 100 µM
TGI [14]: > 100 µM
TGI [15]: > 100 µM
TGI [16]: > 100 µM
TGI [20]: > 100 µM
TGI [17]: > 100 µM
TGI [18]: > 100 µM

[N-]=[N+]=Nc1cc(=O)[nH]nc1-c1ccccc1
TGI [1]: > 100 µM
TGI [2]: > 100 µM
TGI [3]: > 100 µM
TGI [4]: > 100 µM
TGI [5]: > 100 µM
TGI [19]: > 100 µM
TGI [6]: > 100 µM
TGI [7]: > 100 µM
TGI [8]: > 100 µM
TGI [9]: > 100 µM
TGI [10]: > 100 µM
TGI [11]: > 100 µM
TGI [13]: > 100 µM
TGI [14]: > 100 µM
TGI [15]: > 100 µM
TGI [16]: > 100 µM
TGI [20]: > 100 µM
TGI [17]: > 100 µM

CCOC(=O)/C=C/[C@H](O[Si](CC)(CC)CC)C(C)(C)C
TGI [1]: > 100 µM
TGI [2]: > 100 µM
TGI [3]: > 100 µM
TGI [4]: > 100 µM
TGI [5]: 46.2 µM
TGI [19]: > 100 µM
TGI [6]: > 100 µM
TGI [7]: > 100 µM
TGI [8]: > 100 µM
TGI [9]: > 100 µM
TGI [10]: > 100 µM
TGI [11]: > 100 µM
TGI [12]: > 100 µM
TGI [14]: > 100 µM
TGI [15]: > 100 µM
TGI [16]: > 100 µM
TGI [20]: > 100 µM
TGI [17]: 41.3 µM
TGI [18]: > 100 µM
